US10370333B2 (Sanford Burnham Prebys Medical Discovery Institute, priority 2012, dated 2019)

The molecules below were run against TNAP (Homo sapiens (Human), UniProt P05186) (assay: TNAP (PPi) inhibition assay, pyrophosphate as substrate).
Assay type: biochemical
Protocol: Expression plasmids containing a secreted epitope-tagged TNAP were transfected into COS-1 cells for transient expression. The medium was replaced with Opti-MEM 24 h later and serum-free media containing secreted proteins was collected 60 hours after electroporation. The medium was dialyzed against TBS containing 1 mM MgCl2 and […] (to remove phosphate) and filtered through a […] cellulose acetate filter.
To determine the inhibition selectivity for inhibitor candidates, human TNAP, PLAP or IAP were added to microtiter plates followed by addition of the substrate pNPP (0.5 mM) and activity was measured in 1 M DEA-HCl buffer, pH 9.8 or in 1 M Tris-HCl buffer, pH 7.5, containing 1 mM MgCl2 and 20 μM ZnCl2, in the presence of potential inhibitors (0-30 μM). TNAP, PLAP and IAP activities were adjusted to an approximate λA405 nm, equivalent to 1, measured after 30 min. Residual AP activity in the presence of inhibitors was expressed as percentage of the control activity. To investigate the mechanism of inhibition, double reciprocal plots of enzyme activity (expressed as mA405 nm min−1) vs. substrate concentration were constructed, in the presence of various concentrations of added inhibitors (0-30 μM). The y-axis intercepts of the 1/v vs. 1/[S] plots, were then plotted vs. [I] to graphically extract Ki values as the x-intercept in this plot. […] Inhibitors were further tested and sorted based on their kinetic properties at pH 7.4 using PPi, the relevant natural substrate of TNAP. […] Amounts of released phosphate were measured using the Biomol Green Reagent (Biomol Research Laboratories, Inc., Plymouth Meeting, Pa.).

Compound	IC50
COc1ccc(C(N)=O)cc1S(=O)(=O)Nc1cnc2ccccc2c1 [Example II-14, 4-Methoxy-3-(quinolin-3-ylsulfamoyl)-benzamide]	100 to 1000 nM
COc1ccc(-c2ccoc2)cc1S(=O)(=O)Nc1cnc2ccccc2c1 [Example II-7, 5-Furan-3-yl-2-methoxy-N-quinolin-3-yl-benzenesulfonamide]	100 to 1000 nM
COC(=O)c1cncc(NS(=O)(=O)c2cc(Br)ccc2OC)c1 [Example IV-1, Methyl 5-(5-bromo-2-methoxyphenylsulfonamido)nicotinate]	< 100 nM
COc1ccc(Br)cc1S(=O)(=O)Nc1cncc(C(=O)Oc2ccccc2)c1 [Example IV-5, Phenyl 5-(5-bromo-2-methoxyphenylsulfonamido)nicotinate]	< 100 nM
COc1ccc(Cl)cc1S(=O)(=O)Nc1cncc(-c2ccc(Br)cc2)c1 [Example III-24, N-[5-(4-Bromo-phenyl)-pyridin-3-yl]-5-chloro-2-methoxy-benzenesulfonamide]	100 to 1000 nM
O=S(=O)(Nc1cnc2ccccc2c1)c1cc(Cl)ccc1OC(F)(F)F [Example X-3, 5-Chloro-N-quinolin-3-yl-2-trifluoromethoxy-benzenesulfonamide]	< 100 nM
COc1ccc(OC)c(S(=O)(=O)Nc2cncc(C(=O)N3CCN(C)CC3)c2)c1 [Example IV-44, 2,5-Dimethoxy-N-(5-(4-methylpiperazine-1-carbonyl)pyridin-3-yl)benzenesulfonamide]	< 100 nM
O=S(=O)(Nc1cncc(-c2ccc(F)cc2)c1)c1cc(Br)ccc1OC(F)(F)F [Example XI-9, 5-Bromo-N-(5-(4-fluorophenyl)pyridin-3-yl)-2-(trifluoromethoxy)benzenesulfonamide]	100 to 1000 nM
COc1ccc(Cl)cc1S(=O)(=O)Nc1cncc(-c2ccccc2C(F)(F)F)c1	100 to 1000 nM
COc1ccc(OC)c(S(=O)(=O)Nc2cnc3ccc(C(=O)O)cc3c2)c1 [Example IX-9, 3-(2,5-Dimethoxy-benzenesulfonylamino)-quinoline-6-carboxylic Acid]	> 1000 nM
COc1ccc(Br)cc1S(=O)(=O)Nc1nccs1 [Example V-15, 5-Bromo-2-methoxy-N-thiazol-2-yl-benzenesulfonamide]	> 1000 nM
O=S(=O)(Nc1cncc(-c2cccs2)c1)c1cc(Cl)ccc1OC(F)(F)F [Example XI-14, 5-Chloro-N-(5-(thiophen-2-yl)pyridin-3-yl)-2-(trifluoromethoxy)benzenesulfonamide]	100 to 1000 nM
COc1ccc(C(=O)N2CCN(C)CC2)cc1S(=O)(=O)Nc1cnc2ccccc2c1 [Example II-22, 2-Methoxy-5-(4-methyl-piperazine-1-carbonyl)-N-quinolin-3-yl-benzenesulfonamide]	> 1000 nM
NC(=O)c1cncc(NS(=O)(=O)c2cc(Br)ccc2OC(F)(F)F)c1 [Example XII-13, 5-(5-Bromo-2-(trifluoromethoxy)phenylsulfonamido)nicotinamide]	< 100 nM
COc1ccc(OC(F)(F)F)cc1S(=O)(=O)Nc1cncc(-c2cscn2)c1 [Example XI-30, 2-Methoxy-N-(5-(thiazol-4-yl)pyridin-3-yl)-5-(trifluoromethoxy)benzenesulfonamide]	< 100 nM
COc1ccc(OC)c(S(=O)(=O)Nc2cc(C(F)(F)F)n(C)n2)c1 [Example V-14, 2,5-Dimethoxy-N-(1-methyl-5-trifluoromethyl-1H-pyrazol-3-yl)-benzenesulfonamide]	> 1000 nM
COc1ccc(Br)cc1S(=O)(=O)Nc1nnc(C(F)(F)F)s1 [Example V-19, 5-Bromo-2-methoxy-N-(5-trifluoromethyl-[1,3,4]thiadiazol-2-yl)-benzenesulfonamide]	100 to 1000 nM
COc1ccc(Br)cc1S(=O)(=O)Nc1cncc(-c2cnn(C)c2)c1 [Example III-89, 5-Bromo-2-methoxy-N-(5-(1-methyl-1H-pyrazol-4-yl)pyridin-3-yl)benzenesulfonamide]	< 100 nM
COc1ccc(-c2ccsc2)cc1S(=O)(=O)Nc1cccnc1 [Example I-8, 2-Methoxy-N-pyridin-3-yl-5-thiophen-3-yl-benzenesulfonamide]	100 to 1000 nM
COc1ccc(Cl)cc1S(=O)(=O)Nc1cncc(C(=O)Oc2ccccc2)c1 [Example IV-10, Phenyl 5-(5-chloro-2-methoxyphenylsulfonamido)nicotinate]	< 100 nM
O=S(=O)(Nc1cncc(-c2cncs2)c1)c1cc(Cl)ccc1OC(F)(F)F [Example XI-25, 5-Chloro-N-(5-(thiazol-5-yl)pyridin-3-yl)-2-(trifluoromethoxy)benzenesulfonamide]	100 to 1000 nM
COc1ccc(Br)cc1S(=O)(=O)Nc1cncc(C(=O)NCCN(C)C)c1 [Example IV-22, 5-(5-Bromo-2-methoxyphenylsulfonamido)-N-(2-(dimethylamino)ethyl)nicotinamide]	100 to 1000 nM
CCCOC(=O)c1cncc(NS(=O)(=O)c2cc(Br)ccc2OC)c1 [Example IV-3, Propyl 5-(5-bromo-2-methoxyphenylsulfonamido)nicotinate]	< 100 nM

The remaining lines, values ahead:

IC50	Compound
< 100 nM	COc1ccc(OC)c(S(=O)(=O)Nc2cncc(-c3ccoc3)c2)c1 [Example III-70, N-(5-(Furan-3-yl)pyridin-3-yl)-2,5-dimethoxybenzenesulfonamide]
< 100 nM	COc1ccc(OC)c(S(=O)(=O)Nc2cncc(-c3ccco3)c2)c1 [Example III-67, N-(5-(Furan-2-yl)pyridin-3-yl)-2,5-dimethoxybenzenesulfonamide]
> 1000 nM	C#CCN(c1cnc2ccccc2c1)S(=O)(=O)c1cc(OC)ccc1OC [Example VII-21, 2,5-Dimethoxy-N-(prop-2-yn-1-yl)-N-(quinolin-3-yl)benzenesulfonamide]
> 1000 nM	COc1ccc(Br)cc1S(=O)(=O)Nc1ccc(N2CCOCC2)nc1 [Example VIII-1, 5-Bromo-2-methoxy-N-(6-morpholinopyridin-3-yl)benzenesulfonamide]
> 1000 nM	COc1ccc(OC)c(S(=O)(=O)Nc2ccc(NCCN(C)C)nc2)c1 [Example VIII-14, N-(6-((2-(Dimethylamino)ethyl)amino)pyridin-3-yl)-2,5-dimethoxybenzenesulfonamide]
< 100 nM	COc1ccc(Cl)cc1S(=O)(=O)Nc1cncc(-c2ccccc2)c1 [Example III-27, 5-Chloro-2-methoxy-N-(5-phenyl-pyridin-3-yl)-benzenesulfonamide]
100 to 1000 nM	COc1ccc(Br)cc1S(=O)(=O)Nc1cncc(-c2ccc(OCc3ccccc3)cc2)c1 [Example III-5, N-(5-(4-(Benzyloxy)phenyl)pyridin-3-yl)-5-bromo-2-methoxybenzenesulfonamide]
< 100 nM	COc1ccc(Br)cc1S(=O)(=O)Nc1cncc(-c2ccoc2)c1 [Example III-71, 5-Bromo-N-(5-(furan-3-yl)pyridin-3-yl)-2-methoxybenzenesulfonamide]
< 100 nM	COC(=O)c1ccc(-c2cncc(NS(=O)(=O)c3cc(Br)ccc3OC)c2)cc1 [Example III-29, 4-[5-(5-Bromo-2-methoxy-benzenesulfonylamino)-pyridin-3-yl]-benzoic Acid Methyl Ester]
100 to 1000 nM	COc1ccc(OC)c(S(=O)(=O)Nc2cncc(-c3ncccn3)c2)c1 [Example III-91, 2,5-Dimethoxy-N-(5-(pyrimidin-2-yl)pyridin-3-yl)benzenesulfonamide]
< 100 nM	COc1ccc(-c2cncc(NS(=O)(=O)c3cc(Cl)ccc3OC)c2)c(OC)c1 [Example III-57, 5-Chloro-N-(5-(2,4-dimethoxyphenyl)pyridin-3-yl)-2-methoxybenzenesulfonamide]
< 100 nM	COc1ccc(Br)cc1S(=O)(=O)Nc1cncc(-c2nccs2)c1 [Example III-80, 5-Bromo-2-methoxy-N-(5-(thiazol-2-yl)pyridin-3-yl)benzenesulfonamide]
< 100 nM	COc1ccc(OC)c(S(=O)(=O)Nc2cncc(-c3ccsc3)c2)c1 [Example III-76, 2,5-Dimethoxy-N-(5-(thiophen-3-yl)pyridin-3-yl)benzenesulfonamide]
< 100 nM	COc1ccc(OC)c(S(=O)(=O)Nc2cncc(-c3ccccc3Cl)c2)c1 [Example III-40, N-[5-(2-Chloro-phenyl)-pyridin-3-yl]-2,5-dimethoxy-benzenesulfonamide]
< 100 nM	COc1ccc(Br)cc1S(=O)(=O)Nc1cncc(-c2ncccn2)c1 [Example III-92, 5-Bromo-2-methoxy-N-(5-(pyrimidin-2-yl)pyridin-3-yl)benzenesulfonamide]
< 100 nM	COc1ccc(OC)c(S(=O)(=O)Nc2cncc(-c3cccs3)c2)c1 [Example III-73, 2,5-Dimethoxy-N-(5-(thiophen-2-yl)pyridin-3-yl)benzenesulfonamide]
< 100 nM	COc1ccc(Br)cc1S(=O)(=O)Nc1cncc(-c2ccco2)c1 [Example III-68, 5-Bromo-N-(5-(furan-2-yl)pyridin-3-yl)-2-methoxybenzenesulfonamide]
< 100 nM	COc1ccc(Cl)cc1S(=O)(=O)Nc1cncc(-c2ncccn2)c1 [Example III-93, 5-Chloro-2-methoxy-N-(5-(pyrimidin-2-yl)pyridin-3-yl)benzenesulfonamide]
